Series [1] has as its system Mus musculus. Briefly: Antialzheimer activity in APP/PS1 double mutant-transgenic C57BL6/J mouse model assessed as reduction in soluble amyloid beta 42 level in cortex at 10 mg/kg/day, ip for 4 weeks followed by compound washout and measured after 24 hrs by ELISA. It counts as functional, organism-based.
In series [2] the test system is Mus musculus. Put plainly: Antialzheimer activity in APP/PS1 double mutant-transgenic C57BL6/J mouse model assessed as increase in Nrf2 level at 10 mg/kg/day, ip for 4 weeks followed by compound washout and measured after 24 hrs by Western blot analysis. It counts as functional, organism-based.
The next series concerns the target Acetylcholinesterase (Homo sapiens, UniProt P22303).
A short description of series [3]: Acute toxicity in C57BL6/J mouse at 5 to 10 mg/kg, ip measured up to 24 hrs. It counts as organism-based. Conditions: in vivo, dose 5-10 mg/kg.
Series [4] in a line: Acute toxicity in C57BL6/J mouse assessed as piloerection at 15 mg/kg, ip measured after 10 to 15 mins. In kind it is organism-based. To be noted: in vivo, time 10-15 min.
Series [5] in a line: Acute toxicity in C57BL6/J mouse assessed as reduction in locomotor activity at 15 mg/kg, ip measured after 10 to 15 mins. In kind it is organism-based. To be noted: in vivo, time 10-15 min.
For series [6], the system named is Mus musculus. Briefly: Antialzheimer activity in APP/PS1 double mutant-transgenic C57BL6/J mouse model assessed as reduction in oxidized protein level at 10 mg/kg/day, ip for 4 weeks followed by compound washout and measured after 24 hrs by Western blot analysis. It counts as functional, organism-based.
The nature of series [7]: Acute toxicity in C57BL6/J mouse at 15 mg/kg, ip measured after 3 hrs. In kind it is organism-based. To be noted: in vivo.
Series [8] concerns Mus musculus. Put plainly: Improvement in memory impairment in APP/PS1 double mutant-transgenic C57BL6/J mouse model assessed as […] at 10 mg/kg/day, ip for 4 weeks followed by compound washout by maze two-object recognition test. It counts as functional, organism-based.
Series [9] deals with Mus musculus. Briefly: Antialzheimer activity in APP/PS1 double mutant-transgenic C57BL6/J mouse model assessed as reduction in Bace1 gene expression at 10 mg/kg/day, ip for 4 weeks followed by compound washout and measured after 24 hrs by qPCR analysis. In kind it is functional, organism-based.
Series [10] relates to Mus musculus. Put plainly: Antialzheimer activity in APP/PS1 double mutant-transgenic C57BL6/J mouse model assessed as increase in Adam10 gene expression at 10 mg/kg/day, ip for 4 weeks followed by compound washout and measured after 24 hrs by qPCR analysis. In kind it is functional, organism-based.
Series [11] relates to Mus musculus. Briefly: Antialzheimer activity in APP/PS1 double mutant-transgenic C57BL6/J mouse model assessed as reduction in Bace1 expression at 10 mg/kg/day, ip for 4 weeks followed by compound washout and measured after 24 hrs by Western blot analysis. It counts as functional, organism-based.
The next series has as its target Cholinesterase (Homo sapiens, UniProt P06276).
The nature of series [12]: Acute toxicity in C57BL6/J mouse assessed as ptosis at 15 mg/kg, ip measured after 10 to 15 mins. It counts as organism-based. To be noted: in vivo, time 10-15 min.
Series [13] relates to Mus musculus. Briefly: Antialzheimer activity in APP/PS1 double mutant-transgenic C57BL6/J mouse model assessed as increase in GPX1 level at 10 mg/kg/day, ip for 4 weeks followed by compound washout and measured after 24 hrs by Western blot analysis. In kind it is functional, organism-based.
The target of the next series is Beta-secretase 1 (Homo sapiens, UniProt P56817). Briefly: Inhibition human BACE1 expressed in baculovirus expression system using Panvera peptide as substrate measured after 60 mins by fluorescence assay. To be noted: read-out: IC50.
Another series is described as follows: in vitro. To be noted: PAMPA.
For series [14], the system named is Mus musculus. Briefly: Antialzheimer activity in APP/PS1 double mutant-transgenic C57BL6/J mouse model assessed as reduction in soluble amyloid beta 40 level in cortex at 10 mg/kg/day, ip for 4 weeks followed by compound washout and measured after 24 hrs by ELISA. In kind it is functional, organism-based.
Series [15] concerns Mus musculus. Briefly: Antialzheimer activity in APP/PS1 double mutant-transgenic C57BL6/J mouse model assessed as reduction in amyloid beta burden in cortex at 10 mg/kg/day, ip for 4 weeks followed by compound washout and measured after 24 hrs by hematoxylin staining based microscopic analysis. It counts as functional, organism-based.
A short description of series [16]: Acute toxicity in C57BL6/J mouse assessed as tremor at 15 mg/kg, ip measured after 10 to 15 mins. It counts as organism-based. To be noted: in vivo, time 10-15 min.
The test system of series [17] is Mus musculus. Put plainly: Antialzheimer activity in APP/PS1 double mutant-transgenic C57BL6/J mouse model assessed as increase in SOD2 level at 10 mg/kg/day, ip for 4 weeks followed by compound washout and measured after 24 hrs by double immunostaining assay. In kind it is functional, organism-based.
Series [18] relates to Mus musculus. Briefly: Antialzheimer activity in APP/PS1 double mutant-transgenic C57BL6/J mouse model assessed as increase in Adam10 expression at 10 mg/kg/day, ip for 4 weeks followed by compound washout and measured after 24 hrs by Western blot analysis. In kind it is functional, organism-based.

Active and inactive are the calls of the source. The rule behind the calls is not given here.

Chain of Beta-secretase 1 (P56817 whole entry): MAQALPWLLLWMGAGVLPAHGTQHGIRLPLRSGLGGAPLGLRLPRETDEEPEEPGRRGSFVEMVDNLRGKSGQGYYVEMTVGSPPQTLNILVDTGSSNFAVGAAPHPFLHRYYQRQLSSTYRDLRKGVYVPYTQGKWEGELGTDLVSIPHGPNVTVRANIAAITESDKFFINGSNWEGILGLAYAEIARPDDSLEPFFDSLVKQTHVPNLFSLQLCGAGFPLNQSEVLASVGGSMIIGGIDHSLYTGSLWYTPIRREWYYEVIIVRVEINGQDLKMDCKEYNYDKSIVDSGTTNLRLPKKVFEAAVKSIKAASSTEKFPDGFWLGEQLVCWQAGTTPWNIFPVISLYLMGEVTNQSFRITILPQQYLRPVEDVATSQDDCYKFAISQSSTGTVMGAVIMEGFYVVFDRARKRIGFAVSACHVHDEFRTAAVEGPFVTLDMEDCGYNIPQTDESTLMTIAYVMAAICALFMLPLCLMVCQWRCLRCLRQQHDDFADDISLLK
Chain of Acetylcholinesterase (P22303 whole entry): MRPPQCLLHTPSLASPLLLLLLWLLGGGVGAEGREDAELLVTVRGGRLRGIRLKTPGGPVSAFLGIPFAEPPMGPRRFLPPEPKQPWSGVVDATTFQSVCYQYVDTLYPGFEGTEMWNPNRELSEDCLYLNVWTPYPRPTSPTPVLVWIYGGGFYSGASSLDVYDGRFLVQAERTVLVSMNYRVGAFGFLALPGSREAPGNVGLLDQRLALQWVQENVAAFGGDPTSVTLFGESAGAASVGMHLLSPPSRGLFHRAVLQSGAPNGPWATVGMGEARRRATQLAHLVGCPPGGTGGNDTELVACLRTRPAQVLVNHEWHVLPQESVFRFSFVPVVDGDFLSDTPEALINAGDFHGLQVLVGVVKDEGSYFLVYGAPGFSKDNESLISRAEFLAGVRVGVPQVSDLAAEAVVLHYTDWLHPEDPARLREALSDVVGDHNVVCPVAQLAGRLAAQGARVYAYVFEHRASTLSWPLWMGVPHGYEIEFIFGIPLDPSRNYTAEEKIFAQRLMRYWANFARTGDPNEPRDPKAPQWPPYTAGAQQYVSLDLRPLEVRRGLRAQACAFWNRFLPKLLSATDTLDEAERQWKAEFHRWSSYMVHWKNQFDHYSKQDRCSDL
Chain of Cholinesterase (P06276 whole entry): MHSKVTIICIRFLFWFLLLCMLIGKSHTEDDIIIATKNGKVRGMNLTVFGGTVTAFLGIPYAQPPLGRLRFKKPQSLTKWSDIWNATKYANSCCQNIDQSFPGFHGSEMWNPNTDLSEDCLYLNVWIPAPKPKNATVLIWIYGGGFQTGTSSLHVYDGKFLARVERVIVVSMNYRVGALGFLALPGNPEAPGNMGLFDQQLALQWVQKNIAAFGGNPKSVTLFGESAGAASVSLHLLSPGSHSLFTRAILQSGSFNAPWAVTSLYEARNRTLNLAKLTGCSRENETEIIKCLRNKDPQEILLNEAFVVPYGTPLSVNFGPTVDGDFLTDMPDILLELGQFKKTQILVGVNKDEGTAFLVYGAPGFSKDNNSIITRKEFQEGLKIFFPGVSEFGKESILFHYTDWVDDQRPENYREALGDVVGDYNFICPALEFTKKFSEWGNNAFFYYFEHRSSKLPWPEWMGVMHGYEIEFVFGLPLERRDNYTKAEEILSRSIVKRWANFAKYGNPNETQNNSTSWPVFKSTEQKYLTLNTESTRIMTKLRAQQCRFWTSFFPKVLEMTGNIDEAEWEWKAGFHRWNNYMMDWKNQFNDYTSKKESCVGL
Description for Acetylcholinesterase: Inhibition of recombinant human AChE expressed in HEK293 cells using acetylthiocholine iodide as substrate preincubated for 15 mins followed by substrate addition by Ellman's method
Description for in vitro: Permeability of compound in PBS/EtOH buffer (7:3) PAMPA-BBB assay

Turning to `COc1cc2c(cc1OCc1ccccc1)CCC(C)(CC(=O)NCCCCCCCCNc1c3c(nc4cc(Cl)ccc14)CCCC3)O2` (configuration not stated), the outcome in the series on Mus musculus [1], in the series on Mus musculus [2], in the series with Mus musculus [6], with Mus musculus [8], in the series with Mus musculus [11] and in the series on Mus musculus [13] was inactive. In addition, the outcome with Mus musculus [14], in the series on Mus musculus [15] and in the series with Mus musculus [17] was inactive. In addition, the IC50 against Acetylcholinesterase amounted to 10.4 nM; against Cholinesterase, 100 nM; on Beta-secretase 1 it was 8310 nM. For the same molecule, the Activity result in [3] is “Non-Toxic”; in [4], “Toxic”; in series [5] it was “Toxic”; in series [7], “Non-Toxic”; in series [12], “Toxic”; in series [16], “Toxic”. Also, the outcome with Mus musculus [9], in the series on Mus musculus [10] and in the series on Mus musculus [18] was Active. Further, in “in vitro”, the apparent permeability (Papp) turned out to be 12.3 ×10⁻⁶ cm/s.

These data come from ChEMBL document CHEMBL4725294, “Centrally Active Multitarget Anti-Alzheimer Agents Derived from the Antioxidant Lead CR-6” (J Med Chem, 2020).
